Results taken from ChEMBL document CHEMBL4229453, “New lead elements for histamine H3 receptor ligands in the pyrrolo[2,3-d]pyrimidine class” (Bioorg Med Chem Lett, 2018).

Columns and labels:
Histamine H3 receptor [1] = biological target: T1, Histamine H3 receptor (Homo sapiens, UniProt Q9Y5N1); test: Displacement of [3H]Nalpha-methylhistamine from human H3 receptor
Histamine H3 receptor [2] = biological target: T1, Histamine H3 receptor; test: Displacement of [3H]Nalpha-methylhistamine from human H3 receptor at 1 uM relative to control
[3] = biological target: Histamine H4 receptor (Homo sapiens) (UniProt Q9H3N8); test: Displacement of [3H]histamine from human H4 receptor at 1 uM relative to control
Histamine H4 receptor (Homo sapiens), sequence (Q9H3N8 whole entry): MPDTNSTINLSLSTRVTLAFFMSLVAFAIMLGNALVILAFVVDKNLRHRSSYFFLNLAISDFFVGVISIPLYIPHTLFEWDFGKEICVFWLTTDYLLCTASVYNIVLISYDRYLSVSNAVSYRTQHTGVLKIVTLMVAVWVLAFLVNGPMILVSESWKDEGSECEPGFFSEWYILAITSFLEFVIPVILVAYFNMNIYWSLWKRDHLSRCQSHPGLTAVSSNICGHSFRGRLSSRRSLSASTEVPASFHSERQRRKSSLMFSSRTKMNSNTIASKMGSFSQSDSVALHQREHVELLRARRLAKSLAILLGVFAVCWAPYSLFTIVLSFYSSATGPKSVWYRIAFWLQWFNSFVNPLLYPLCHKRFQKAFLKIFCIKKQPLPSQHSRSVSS

T1 sequence (Q9Y5N1 whole entry): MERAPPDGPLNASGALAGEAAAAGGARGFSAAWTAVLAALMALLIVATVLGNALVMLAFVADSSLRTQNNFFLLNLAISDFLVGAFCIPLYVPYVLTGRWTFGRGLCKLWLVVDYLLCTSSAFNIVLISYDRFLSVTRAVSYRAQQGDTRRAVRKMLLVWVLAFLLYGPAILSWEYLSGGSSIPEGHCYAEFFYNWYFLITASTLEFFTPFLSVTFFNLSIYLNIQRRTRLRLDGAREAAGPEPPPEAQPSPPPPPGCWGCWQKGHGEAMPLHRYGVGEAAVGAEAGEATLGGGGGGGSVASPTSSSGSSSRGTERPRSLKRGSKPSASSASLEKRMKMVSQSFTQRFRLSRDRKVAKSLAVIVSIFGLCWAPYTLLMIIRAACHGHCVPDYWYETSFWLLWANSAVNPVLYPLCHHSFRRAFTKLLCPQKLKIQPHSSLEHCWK

SMILES	Ki (Histamine H3 receptor [1])	inhibition (Histamine H3 receptor [2])	inhibition [3]
Clc1nc(N2CCC(N3CCCCC3)CC2)c2ccn(Cc3ccc4ccccc4c3)c2n1	126 nM	95%	< 80%
Clc1nc(N2CCC(N3CCCCC3)CC2)c2ccn(Cc3ccccc3)c2n1	490 nM	96%	< 80%
CN1CCN(c2nc(Cl)nc3c2ccn3Cc2ccccc2)CC1		< 80%	< 80%
Clc1nc(N2CCC(N3CCOCC3)CC2)c2ccn(Cc3cccc4ccccc34)c2n1		< 80%	< 80%
CN1CCN(c2nc(Cl)nc3c2ccn3Cc2ccc3ccccc3c2)CC1		< 80%	< 80%
Clc1nc(NCCN2CCOCC2)c2ccn(Cc3cccc4ccccc34)c2n1		< 80%	< 80%
Clc1nc(N2CCC(N3CCOCC3)CC2)c2ccn(Cc3ccccc3)c2n1	1070 nM	< 80%	< 80%
Clc1nc(NCCN2CCOCC2)c2ccn(Cc3ccc4ccccc4c3)c2n1		< 80%	< 80%
Clc1nc(NCCN2CCOCC2)c2ccn(Cc3ccccc3)c2n1		< 80%	< 80%
Clc1nc(N2CCC(N3CCOCC3)CC2)c2ccn(Cc3ccc4ccccc4c3)c2n1		< 80%	< 80%
Clc1nc(N2CCC(N3CCCCC3)CC2)c2ccn(Cc3cccc4ccccc34)c2n1	148 nM	95%	< 80%
CN1CCN(c2nc(Cl)nc3c2ccn3Cc2cccc3ccccc23)CC1		< 80%	< 80%
